Source: US20240390295A1, “METHODS FOR TREATING DEPRESSION” (JANSSEN PHARMACEUTICA NV, priority 2020, published 2024)

Experiments:
[1] = test system: adult patients (aged 18-64 years) with TRD; test: Severity of recurrent clinician-reported AEs (0 no AE, 1 mild, 2 moderate, 3 severe); assay type: in vivo, human
Description: Patients were monitored for >90 minutes after ESK administration at each treatment session, after which time they could leave the clinical site at the clinician's discretion. AEs were monitored and reported, and safety assessments, including clinical laboratory tests and physical examinations, were conducted throughout the study. Clinician-reported AEs were categorized as mild, moderate, or severe based on clinical judgement (Table 1).
This analysis included any treatment sessions in which patients received ESK (either open-label or blinded). The occurrence and severity of AEs were assessed within the following timeframes: Month 1 (Week 1 and Weeks 2-4), Month 2 (Weeks 5-8), Months 3-6 and Months 6-12. Severity of clinician-reported AEs were scored as 0 (no AE), 1 (mild), 2 (moderate), and 3 (severe). To examine AEs in individual patients over time, only patients who received at least one ESK dose in the following period were included in the analyses of each respective period. Thus, patient data were retained in (i) Week 1 if the patient received ≥1 ESK dose in Weeks 2-4, (ii) Weeks 2-4 if the patient received ≥1 ESK dose in Weeks 5-8, (iii) Weeks 5-8 if the patient received ≥1 ESK dose in Months 3-6, and (iv) Months 3-6 if the patient received ≥1 ESK dose in Months 6-12.
Week 1 and Week 4 were set a priori as index weeks because they are the beginning and end of the induction period. Frequencies and maximum-reported severities of AEs reported during these index weeks served as stratifying variables by which to examine recurrence and severities of AE recurrences in future timeframes.

[2] = test system: adult patients (aged 18-64 years) with TRD; conditions: cited from earlier work

CN[C@]1(c2ccccc2Cl)CCCCC1=O [esketamine, (S)-2-(2-chlorophenyl)-2-(methylamino)cyclohexanone]
clinician-reported dissociation mean recurrence severity score ([1]; AE moderate in Week 1, Months 3-6): 1.4
clinician-reported dissociation mean recurrence severity score ([1]; AE moderate in Week 1, Months 6-12): 1.5
clinician-reported dissociation mean recurrence severity score ([1]; AE moderate in Week 1, Weeks 2-4): 1.5
clinician-reported dissociation mean recurrence severity score ([1]; AE moderate in Week 1, Weeks 5-8): 1.3
clinician-reported dissociation mean recurrence severity score ([1]; AE severe in Week 1, Months 3-6): 1.2
clinician-reported dissociation mean recurrence severity score ([1]; AE severe in Week 1, Months 6-12): 1.6
clinician-reported dissociation mean recurrence severity score ([1]; AE severe in Week 1, Weeks 2-4): 1.5
clinician-reported dissociation mean recurrence severity score ([1]; AE severe in Week 1, Weeks 5-8): 1.8
patients with a severe recurrence ([1]; all clinician-reported AEs except dissociation, any observation period following Week 1 or 4): < 5 patients
patients with a moderate recurrence ([1]; clinician-reported AEs except dissociation, dizziness, vertigo and nausea, any observation period): < 10 patients
reported severity of dissociation, dizziness, nausea, sedation, vertigo, increased blood pressure ([1]; initial incidence and recurrence): mostly mild and rarely severe
clinician-reported dissociation mean recurrence severity score ([1]; no dissociation in Week 1, all timeframes): 1.3
severity of recurrences ([1]; regardless of highest severity in Weeks 1 or 4): mild to moderate
incidence of dissociation, dizziness, nausea, sedation, vertigo ([2]; ESK plus OAD therapy): ≥ 5%
incidence relative to placebo plus an OAD ([2]; five most common treatment-emergent events): ≥ 2 fold
